Consider 43 compounds from patent US8604218B2, “Cytoskeletal active rho kinase inhibitor compounds, composition and use” (Inspire Pharmaceuticals, Inc., priority 2006, dated 2013).

The assay addresses ROCK2 (Homo sapiens (Human), UniProt O75116). The assay can be described thus: Rho Kinase Inhibition Assay (IMAP fluorescence polarization). It counts as biochemical. Conditions: isolated enzyme, 10 μM ATP, 60 minutes at room temperature.

The structures appear in SMILES notation.

Sequence of ROCK2 (O75116 11-552): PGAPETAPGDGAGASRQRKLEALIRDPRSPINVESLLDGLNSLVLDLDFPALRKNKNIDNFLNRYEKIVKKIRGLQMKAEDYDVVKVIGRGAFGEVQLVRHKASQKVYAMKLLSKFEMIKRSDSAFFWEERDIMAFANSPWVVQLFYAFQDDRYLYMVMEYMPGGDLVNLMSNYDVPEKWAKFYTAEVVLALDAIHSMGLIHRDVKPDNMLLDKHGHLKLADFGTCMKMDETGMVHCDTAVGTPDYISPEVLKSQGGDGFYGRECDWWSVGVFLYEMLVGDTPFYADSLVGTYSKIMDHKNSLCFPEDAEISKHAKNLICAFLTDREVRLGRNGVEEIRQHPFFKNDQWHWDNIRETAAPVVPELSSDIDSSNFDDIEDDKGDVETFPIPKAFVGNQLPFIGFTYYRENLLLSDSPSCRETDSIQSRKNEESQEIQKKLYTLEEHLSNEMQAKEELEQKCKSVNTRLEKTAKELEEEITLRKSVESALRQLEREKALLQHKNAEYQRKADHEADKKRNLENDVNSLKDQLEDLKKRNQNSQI

For the compound `CC(C)(C)OC(=O)NCc1cccc(CN2CCCC(Nc3ccc4[nH]ncc4c3)C2)c1` (stereo not shown) [Compound 1.057, tert-butyl 3-((3-(1H-indazol-5-ylamino)piperidin-1-yl)methyl)benzylcarbamate], the half-inhibitory concentration (IC50) is 194 nM.

For the compound `c1cc(CN2CC[C@@H](Nc3cccc4cnccc34)C2)cc(C2CC2)c1` [Compound 2.020, (R)-N-(1-(3-cyclopropylbenzyl)pyrrolidin-3-yl)isoquinolin-5-amine], the concentration for half-maximal inhibition (IC50) is 820 nM.

Compound `OCCn1ccc2ccc(CN3CCC[C@@H](Nc4ccc5[nH]ncc5c4)C3)cc21` [Compound 1.108, (R)-2-(6-((3-(1H-indazol-5-ylamino)piperidin-1-yl)methyl)-1H-indol-1-yl)ethanol] gave a concentration for half-maximal inhibition (IC50) of 367 nM.

For the compound `FC(F)(F)c1cccc(CN2CCCC(Nc3ccc4[nH]ncc4c3)C2)c1` (stereo not shown) [Compound 1.063, N-(1-(3-(trifluoromethyl)benzyl)piperidin-3-yl)-1H-indazol-5-amine], the IC50 stood at 223 nM.

`C#Cc1ccc(CN2CC[C@@H](Nc3cccc4cnccc34)C2)cc1` [Compound 2.031, (R)-N-(1-(4-ethynylbenzyl)pyrrolidin-3-yl)isoquinolin-5-amine] registered an IC50 of 87.1 nM.

For the compound `CSc1ccc(CN2CCCC(Nc3ccc4[nH]ncc4c3)C2)cc1` (stereo not shown) [Compound 1.008, N-(1-(4-(methylthio)benzyl)piperidin-3-yl)-1H-indazol-5-amine], the IC50 amounted to 65.8 nM.

`Cc1cccc(CN2CCCC(Nc3ccc4[nH]ncc4c3)C2)c1C` (stereo not shown) [Compound 1.016, N-(1-(2,3-dimethylbenzyl)piperidin-3-yl)-1H-indazol-5-amine] showed an IC50 of 135 nM.

Take `c1cc(N[C@H]2CCN(Cc3ccc(C4CC4)cc3)C2)c2ccncc2c1` [Compound 2.019, (S)-N-(1-(4-cyclopropylbenzyl)pyrrolidin-3-yl)isoquinolin-5-amine]: the half-maximal inhibitory concentration (IC50) turned out to be 4080 nM.

With `c1cc2cc(CN3CCCC(Nc4ccc5[nH]ncc5c4)C3)ccc2[nH]1` (stereo not shown) [Compound 1.100, N-(1-((1H-indol-5-yl)methyl)piperidin-3-yl)-1H-indazol-5-amine], half-maximal inhibition (IC50) required 42.9 nM.

`CSc1ccc(CN2CC[C@H](Nc3cccc4cnccc34)C2)cc1` [Compound 2.029, (S)-N-(1-(4-(methylthio)benzyl)pyrrolidin-3-yl)isoquinolin-5-amine] registered a concentration for half-maximal inhibition (IC50) of 3140 nM.

As to `COc1ccccc1CN1CCCC(Nc2ccc3[nH]ncc3c2)C1` (stereo not shown) [Compound 1.067, N-(1-(2-methoxybenzyl)piperidin-3-yl)-1H-indazol-5-amine], the IC50 was 1850 nM.

For `CS(=O)(=O)c1ccc(CN2CCC(Nc3cccc4cnccc34)C2)cc1` (stereo not shown) [Compound 2.005, N-(1-(4-(methylsulfonyl)benzyl)pyrrolidin-3-yl)isoquinolin-5-amine], it took 1780 nM to reach half-maximal inhibition (IC50).

Turning to `OCCOc1cccc(CN2CCCC(Nc3ccc4[nH]ncc4c3)C2)c1` (stereo not shown) [Compound 1.039, 2-(3-((3-(1H-indazol-5-ylamino)piperidin-1-yl)methyl)phenoxy)ethanol], 328 nM corresponded to half-maximal inhibition (IC50).

For `c1cc2ccc(CN3CCCC(Nc4ccc5[nH]ncc5c4)C3)cc2[nH]1` (stereo not shown) [Compound 1.082, N-(1-((1H-indol-6-yl)methyl)piperidin-3-yl)-1H-indazol-5-amine], the concentration for half-maximal inhibition (IC50) came out at 30.4 nM.

Turning to `FC(F)(F)c1cccc(CN2CCC(Nc3cccc4cnccc34)C2)c1` (stereo not shown) [Compound 2.018, N-(1-(3-(trifluoromethyl)benzyl)pyrrolidin-3-yl)isoquinolin-5-amine], the half-maximal inhibitory concentration (IC50) came out at 632 nM.

`CC(C)Oc1ccc(CN2CCCC(Nc3ccc4[nH]ncc4c3)C2)cc1` (stereo not shown) [Compound 1.015, N-(1-(4-isopropoxybenzyl)piperidin-3-yl)-1H-indazol-5-amine] registered a half-inhibitory concentration (IC50) of 9980 nM.

`CS(=O)(=O)c1ccc(CN2CCC(Nc3ccc4[nH]ncc4c3)C2)cc1` (stereo not shown) [Compound 1.004, N-(1-(4-(methylsulfonyl)benzyl)pyrrolidin-3-yl)-1H-indazol-5-amine] came in with a half-maximal inhibitory concentration (IC50) of 254 nM.

In the case of `OC[C@@H](O)COc1cccc(CN2CCC[C@@H](Nc3ccc4[nH]ncc4c3)C2)c1` [Compound 1.115, (R)-3-(3-(((R)-3-(1H-indazol-5-ylamino)piperidin-1-yl)methyl)phenoxy)propane-1,2-diol], the half-inhibitory concentration (IC50) stood at 555 nM.

On to `CS(=O)(=O)Nc1cccc(CN2CC[C@@H](Nc3ccc4[nH]ncc4c3)C2)c1` [Compound 1.097, (R)-N-(3-((3-(1H-indazol-5-ylamino)pyrrolidin-1-yl)methyl)phenyl)methanesulfonamide], for which the half-maximal inhibitory concentration (IC50) is 276 nM.

Turning to `CC(C)(C)OC(=O)NCc1ccc(CN2CCCC(Nc3ccc4[nH]ncc4c3)C2)cc1` (stereo not shown) [Compound 1.027, tert-butyl 4-((3-(1H-indazol-5-ylamino)piperidin-1-yl)methyl)benzylcarbamate], inhibition was half-maximal at 6600 nM (IC50).

Consider `OCCC#Cc1ccc(CN2CCCC(Nc3ccc4[nH]ncc4c3)C2)cc1` (stereo not shown) [Compound 1.043, 4-(4-((3-(1H-indazol-5-ylamino)piperidin-1-yl)methyl)phenyl)but-3-yn-1-ol], for which the IC50 stood at 11700 nM.

For `NC(=O)COc1cccc(CN2CCCC(Nc3ccc4[nH]ncc4c3)C2)c1` (stereo not shown) [Compound 1.098, 2-(3-((3-(1H-indazol-5-ylamino)piperidin-1-yl)methyl)phenoxy)acetamide], the IC50 stood at 250 nM.

Consider `C#Cc1ccc(CN2CCC[C@@H](Nc3ccc4[nH]ncc4c3)C2)cc1` [Compound 1.076, (R)-N-(1-(4-ethynylbenzyl)piperidin-3-yl)-1H-indazol-5-amine], for which half-maximal inhibition (IC50) required 111 nM.

Take `CCOc1cccc(CN2CCCC(Nc3ccc4[nH]ncc4c3)C2)c1` (stereo not shown) [Compound 1.065, N-(1-(3-ethoxybenzyl)piperidin-3-yl)-1H-indazol-5-amine]: it took 326 nM to reach half-maximal inhibition (IC50).

In the case of `CCCCc1ccc(CN2CCCC(Nc3ccc4[nH]ncc4c3)C2)cc1` (stereo not shown) [Compound 1.014, N-(1-(4-butylbenzyl)piperidin-3-yl)-1H-indazol-5-amine], the concentration for half-maximal inhibition (IC50) is 4690 nM.

As to `c1ccc(CN2CCCC(Nc3cccc4cnccc34)CC2)cc1` (stereo not shown) [Compound 2.013, N-(1-benzylazepan-4-yl)isoquinolin-5-amine], half-maximal inhibition (IC50) required 1490 nM.

Consider `C[C@@H](O)COc1cccc(CN2CCC[C@@H](Nc3ccc4[nH]ncc4c3)C2)c1` [Compound 1.116, (R)-1-(3-(((R)-3-(1H-indazol-5-ylamino)piperidin-1-yl)methyl)phenoxy)propan-2-ol], for which the IC50 stood at 862 nM.

Compound `CC(=O)Nc1ccc(CN2CCCC(Nc3ccc4[nH]ncc4c3)C2)cc1` (stereo not shown) [Compound 1.003, N-(4-((3-(1H-indazol-5-ylamino)piperidin-1-yl)methyl)phenyl)acetamide] registered an IC50 of 6190 nM.

In the case of `OC[C@H](O)COc1cccc(CN2CCC[C@@H](Nc3ccc4[nH]ncc4c3)C2)c1` [Compound 1.113, (S)-3-(3-(((R)-3-(1H-indazol-5-ylamino)piperidin-1-yl)methyl)phenoxy)propane-1,2-diol], the IC50 worked out at 859 nM.

Consider `Clc1ccc(CN2CCCC(Nc3cccc4cnccc34)C2)cc1Cl` (stereo not shown) [Compound 2.014, N-(1-(3,4-dichlorobenzyl)piperidin-3-yl)isoquinolin-5-amine], for which the 50% inhibitory concentration (IC50) was 1670 nM.

Turning to `CS(=O)(=O)Nc1cccc(CN2CC[C@H](Nc3cccc4cnccc34)C2)c1` [Compound 2.035, (S)-N-(3-((3-(isoquinolin-5-ylamino)pyrrolidin-1-yl)methyl)phenyl)methanesulfonamide], the midpoint of inhibition, the IC50, lay at 3240 nM.

`c1cc(N[C@@H]2CCN(Cc3ccc(SC4CC4)cc3)C2)c2ccncc2c1` [Compound 2.021, (R)-N-(1-(4-(cyclopropylthio)benzyl)pyrrolidin-3-yl)isoquinolin-5-amine] registered a 50% inhibitory concentration (IC50) of 1900 nM.

As for `c1cc(C2CC2)ccc1CN1CCCC(Nc2ccc3[nH]ncc3c2)C1` (stereo not shown) [Compound 1.020, N-(1-(4-cyclopropylbenzyl)piperidin-3-yl)-1H-indazol-5-amine], it took 251 nM to reach half-maximal inhibition (IC50).

As to `CN(c1cccc(CN2CCCC(Nc3ccc4[nH]ncc4c3)C2)c1)S(C)(=O)=O` (stereo not shown) [Compound 1.121, N-(3-((3-(1H-indazol-5-ylamino)piperidin-1-yl)methyl)phenyl)-N-methylmethanesulfonamide], half-maximal inhibition (IC50) was put at 578 nM.

`OCCOc1cccc(CN2CCC(Nc3ccc4[nH]ncc4c3)CC2)c1` [Compound 1.130, 2-(3-((4-(1H-indazol-5-ylamino)piperidin-1-yl)methyl)phenoxy)ethanol] yielded an IC50 of 2710 nM.

The compound `CS(=O)(=O)Nc1cc(CN2CCCC(Nc3ccc4[nH]ncc4c3)C2)ccc1Cl` (stereo not shown) [Compound 1.102, N-(5-((3-(1H-indazol-5-ylamino)piperidin-1-yl)methyl)-2-chlorophenyl)methanesulfonamide] gave an IC50 of 34.3 nM.

Compound `CSc1ccc(CN2CCC[C@@H](Nc3ccc4[nH]ncc4c3)C2)cc1` [Compound 1.074, (R)-N-(1-(4-(methylthio)benzyl)piperidin-3-yl)-1H-indazol-5-amine] had a half-inhibitory concentration (IC50) of 71.6 nM.

Consider `CN(C)CCCOc1ccc(CN2CCC(Nc3ccc4[nH]ncc4c3)C2)cc1` (stereo not shown) [Compound 1.007, N-(1-(4-(3-(dimethylamino)propoxy)benzyl)pyrrolidin-3-yl)-1H-indazol-5-amine], for which the IC50 stood at 3440 nM.

`Fc1ccc(CN2CCC[C@H](Nc3ccc4[nH]ncc4c3)C2)cc1F` [Compound 1.072, (S)-N-(1-(3,4-difluorobenzyl)piperidin-3-yl)-1H-indazol-5-amine] had an IC50 of 58.5 nM.

Regarding `O=C(COc1cccc(CN2CC[C@@H](Nc3cccc4cnccc34)C2)c1)N1CCOCC1` [Compound 2.043, (R)-2-(3-((3-(isoquinolin-5-ylamino)pyrrolidin-1-yl)methyl)phenoxy)-1-morpholinoethanone], the IC50 was 383 nM.

`Clc1ccc(CN2CCC(Nc3ccc4[nH]ncc4c3)C2)cc1Cl` (stereo not shown) [Compound 1.062, N-(1-(3,4-dichlorobenzyl)pyrrolidin-3-yl)-1H-indazol-5-amine] showed an IC50 of 155 nM.

Compound `CC(C)Cc1ccc(CN2CCCC(Nc3ccc4[nH]ncc4c3)C2)cc1` (stereo not shown) [Compound 1.013, N-(1-(4-isobutylbenzyl)piperidin-3-yl)-1H-indazol-5-amine] registered an IC50 of 3660 nM.

`c1cc(CN2CCCC(Nc3cccc4cnccc34)C2)cc(C2CC2)c1` (stereo not shown) [Compound 2.011, N-(1-(3-cyclopropylbenzyl)piperidin-3-yl)isoquinolin-5-amine]: the concentration for half-maximal inhibition (IC50) turned out to be 4090 nM.
